From patent US20160175306A1, “COMBINATION OF A IMIDAZOPYRIDAZINE DERIVATIVE AND A MITOTIC AGENT FOR THE TREATMENT OF CANCER” (BAYER PHARMA AKTIENGESELLSCHAFT, priority 2013, published 2016)
Several values for one entry are separate records, joined by “and”; a condition that tells them apart may be missing. Equal entries are not always repeated. Where two headings read alike, the source gives them in different places.

Columns and labels:
[1] = test system: spindle assembly checkpoint in HeLa cells (phosphorylated histone H3 on serine 10); experiment: Spindle Assembly Checkpoint Assay; assay type: cell-based; conditions: Homo sapiens, nocodazole 0.1 μg/ml, 4 h with compound
Source text: The spindle assembly checkpoint assures the proper segregation of chromosomes during mitosis. Upon entry into mitosis, chromosomes begin to condensate which is accompanied by the phosphorylation of histone H3 on serine 10. Dephosphorylation of histone H3 on serine 10 begins in anaphase and ends at early telophase. Accordingly, phosphorylation of histone H3 on serine 10 can be utilized as a marker of cells in mitosis. Nocodazole is a microtubule destabilizing substance. Thus, nocodazole interferes with microtubule dynamics and mobilises the spindle assembly checkpoint. […] An inhibition of the spindle assembly checkpoint by Mps-1 inhibitors overrides the mitotic blockage in the presence of nocodazole, and the cells complete mitosis prematurely. This alteration is detected by the decrease of cells with phosphorylation of histone H3 on serine 10. This decline is used as a marker to determine the capability of compounds of the present invention to induce a mitotic breakthrough.
Cultivated cells of the human cervical tumour cell line HeLa (ATCC CCL-2) were plated at a density of 2500 cells/well in a 384-well microtiter plate in 20 μl Dulbeco's Medium (w/o phenol red, w/o sodium pyruvate, w […] glucose, w pyridoxine) supplemented with 1% (v/v) glutamine, 1% (v/v) penicillin, 1% (v/v) streptomycin and 10% (v/v) fetal calf serum. After incubation overnight at 37° C., 10 μl/well nocodazole at a final concentration of 0.1 μg/ml were added to cells. After 24 h incubation, cells were arrested at G2/M phase of the cell cycle progression. […] Images were acquired with a Perkin Elmer OPERA™ High-Content Analysis reader. Images were analyzed with image analysis software MetaXpress™ from Molecular devices utilizing the Cell Cycle application module. In this assay both labels HOECHST 33342 and phosphorylated Histone H3 on serine 10 were measured. […] The raw assay data were further analysed by four parameter logistic regression analysis to determine the IC50 value for each tested compound.

[2] = test system: HeLa human cervical tumour cells; experiment: Proliferation Assay with HeLa cells; assay type: cell-based; conditions: 96 h, 4 days, crystal violet
Method: After 24 hours, the cells of one plate (zero-point plate) were stained with crystal violet (see below), while the medium of the other plates was replaced by fresh culture medium (200 μl), to which the test substances were added in various concentrations (0 μM, as well as in the range of 0.01-30 μM; the final concentration of the solvent dimethyl sulfoxide was 0.5%). The cells were incubated for 4 days in the presence of test substances. […] After three washing cycles of the fixed cells with water, the plates were dried at room temperature. The cells were stained by adding 100 μl/measuring point of a 0.1% crystal violet solution (pH 3.0). After three washing cycles of the stained cells with water, the plates were dried at room temperature. The dye was dissolved by adding 100 μl/measuring point of a 10% acetic acid solution. […] The change of cell number, in percent, was calculated by normalization of the measured values to the extinction values of the zero-point plate (=0%) and the extinction of the untreated (0 μm) cells (=100%). The IC50 values were determined by means of a 4 parameter fit using the company's own software.

[3] = target: T1, human CYP3A4 (Homo sapiens, UniProt P08684); experiment: Determination of inhibitory potential on human CYP3A4; assay type: in vitro ADME; conditions: human liver microsomes, midazolam substrate; read-out: inhibition of liver enzyme CYP3A4
T1 construct: Human liver microsomal preparation (pool of HLM) was applied for the assay; from tissue; host or cells: pooled human liver microsomes
T1 sequence (P08684 whole entry): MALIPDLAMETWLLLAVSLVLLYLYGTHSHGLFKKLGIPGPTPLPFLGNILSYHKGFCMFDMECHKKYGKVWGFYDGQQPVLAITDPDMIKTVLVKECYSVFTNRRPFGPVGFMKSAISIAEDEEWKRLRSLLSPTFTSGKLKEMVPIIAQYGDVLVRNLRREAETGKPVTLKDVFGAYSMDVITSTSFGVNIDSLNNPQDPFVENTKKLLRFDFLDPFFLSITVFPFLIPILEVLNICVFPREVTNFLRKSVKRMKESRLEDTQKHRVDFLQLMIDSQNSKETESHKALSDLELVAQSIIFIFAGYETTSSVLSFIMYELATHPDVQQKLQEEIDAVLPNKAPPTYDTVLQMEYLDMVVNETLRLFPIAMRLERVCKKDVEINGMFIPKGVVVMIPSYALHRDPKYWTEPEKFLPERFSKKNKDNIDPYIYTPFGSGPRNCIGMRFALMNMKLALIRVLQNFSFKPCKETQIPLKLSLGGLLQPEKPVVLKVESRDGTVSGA
Method: Determination of Inhibitory Potential on Human CYP3A4
The potential of the test compound to act as a competitive inhibitor of CYP3A4 was evaluated in in vitro assays, using human liver microsomes and the reference substrate midazolam. The test compound was solved in acetonitrile. Human liver microsomal preparation (pool of HLM) was applied for the assay.
A stock solution of the test compound was added to phosphate buffer containing EDTA, NADP, glucose 6-phosphate, and glucose 6-phosphate dehydrogenase. This mixture was sequentially diluted on a Genesis Workstation (Tecan, Crailsheim, FRG). After pre-warming, reaction was initiated by addition of a mixture of probe substrate (midazolam). […] The reference samples (substrate, but no inhibitor) were incubated in parallel in sextuple and contained the same amount of solvent as the test incubations. Reactions were stopped by addition of 100 μL acetonitrile containing the internal standard. Precipitated proteins were removed by centrifugation of the well plate, supernatants were analyzed by LC-MS/MS.
The CYP3A4-mediated metabolic activity in the presence of the test compounds was expressed as percentages of the corresponding reference value. […]

[4] = test system: A2780cis human ovarian cancer xenograft model; conditions: for T/C weight: mean final tumor weight; for T/C area: relative tumor area at control dosing stop (15 treatment days)
Method: In Vivo Anti-Tumor Efficacy of Mps-1 Kinase Inhibitors of the Present Invention in Combination with Paclitaxel in A2780cis Human Ovarian Cancer Model in Nude Mice
The effect of combination treatment of an Mps-1 kinase inhibitor of the present invention and paclitaxel was studied in the adaptive cisplatin-resistant and paclitaxel intrinsically resistant A2780cis xenograft model. […] Animal body weight and tumor size were determined three times weekly. Treatment for all groups started at a tumor size of 29 mm^2, at day 6 after tumor cell inoculation. […] At the end of the study after one final treatment plasma and tumors were sampled for PK analysis and final tumor weight was determined.

[5] = test system: NCI-H1299 human NSCLC xenograft model; conditions: for T/C weight: mean final tumor weight; for T/C area: relative tumor area at control dosing stop (22 treatment days)
Source text: In Vivo Anti-Tumor Efficacy of Mps-1 Kinase Inhibitors of the Present Invention in Combination with Paclitaxel in NCI-H1299 Human NSCLC Model in Nude Mice
The effect of combination treatment of an Mps-1 kinase inhibitor of the present invention and paclitaxel was studied in the NCI-H1299 taxane intrinsically resistant human lung carcinoma (NSCLC) xenograft model in nude mice. […] Substances were formulated in optimal vehicles to achieve solutions. Animal body weight and tumor size were determined three times weekly. Treatment for all groups started at a tumor size of 30 mm^2, at day 8 after tumor cell inoculation. […] At the end of the study after one final treatment plasma and tumors were sampled for PK analysis and final tumor weight was determined.

[6] = Compound A27 2 mg/kg 2QD 2on/5off p.o.
[7] = Compound A27 3 mg/kg 2QD 2on/5off p.o.

| IC50 [1] | IC50 [2] | IC50 [3] | SMILES | Fatal Tox [4, 6] | T/C weight [4, 6] | T/C area [4, 6] | Fatal Tox [4, 7] | T/C weight [4, 7] | T/C area [4, 7] | Fatal Tox [5, 6] | T/C weight [5, 6] | T/C area [5, 6] | Fatal Tox [5, 7] | T/C weight [5, 7] | T/C area [5, 7] |
| --- | --- | --- | --- | --- | --- | --- | --- | --- | --- | --- | --- | --- | --- | --- | --- |
| < 0.001 µM | < 0.025 µM | ≥ 5 µM | COc1ccc(Oc2cc(NCC3COC3)c3ncc(-c4ccc(C(=O)NC5CC5)c(C)c4)n3n2)cc1F [Compound A26, N-cyclopropyl-4-{6-(3-fluoro-4-methoxyphenoxy)-8-[(oxetan-3-ylmethyl)amino]imidazo[1,2-b]pyridazin-3-yl}-2-methylbenzamide] |  |  |  |  |  |  |  |  |  |  |  |  |
| < 0.001 µM | < 0.025 µM | ≥ 5 µM | COc1ccc(Oc2cc(NCC3CCOCC3)c3ncc(-c4ccc(C(=O)NC5CC5)c(C)c4)n3n2)c(F)c1F [Compound A28, N-cyclopropyl-4-{6-(2,3-difluoro-4-methoxyphenoxy)-8-[(tetrahydro-2H-pyran-4-ylmethyl)amino]imidazo[1,2-b]pyridazin-3-yl}-2-methylbenzamide] |  |  |  |  |  |  |  |  |  |  |  |  |

| SMILES | IC50 [1] | IC50 [2] | IC50 [3] | Fatal Tox [4, 6] | T/C weight [4, 6] | T/C area [4, 6] | Fatal Tox [4, 7] | T/C weight [4, 7] | T/C area [4, 7] | Fatal Tox [5, 6] | T/C weight [5, 6] | T/C area [5, 6] | Fatal Tox [5, 7] | T/C weight [5, 7] | T/C area [5, 7] |
| --- | --- | --- | --- | --- | --- | --- | --- | --- | --- | --- | --- | --- | --- | --- | --- |
| COc1ccc(Oc2cc(NCCC(F)(F)F)c3ncc(-c4ccc(C(=O)NC5CC5)c(C)c4)n3n2)c(F)c1F [Compound A27, N-cyclopropyl-4-{6-(2,3-difluoro-4-methoxyphenoxy)-8-[(3,3,3-trifluoropropyl)amino]imidazo[1,2-b]pyridazin-3-yl}-2-methylbenzamide] | < 0.001 µM |  |  | 0/10 | 0.98 | 1.00 | 0/10 | 0.88 | 0.90 | 0/10 | 1.18 | 0.99 and 0.98 | 0/10 | 0.74 | 0.64 |
